From patent publication US10125160B1, “Method of making cobalt and platinum based surfactants and using for cancer therapy” (Umm Al-Qura University, priority 2015, dated 2018)

Legend:
[1] = test system: MCF7 (Breast carcinoma); assay: Potential cytotoxicity by SRB assay, MCF7; assay type: cell-based, human
Experimental: (§1) Potential cytotoxicity of the complex was tested using the method of Skehan et al. (1990). The tumor cell lines: MCF7 (Breast carcinoma), HEPG2 (liver carcinoma), (10^4 cells/well) had been supplied from National Cancer Institute Cairo Egypt, were plated in 96-multiwell plat for 24 h before treatment with the compounds to allow attachment of cell to the wall of the plate.
(§2) Different concentrations of the complexes under test (0, 1, 2.5, Sand 10 μg/ml) were added to the cell-monolayer (parent complex, parent complex with Co, parent complex with Pt). Triplicate wells were prepared for each individual dose. Monolayer cells were incubated with the complex for 48 h at 37 C° and in atmosphere of 5% CO2. After 48 h, Cells were fixed, washed and stained with Sulfurhodamine B stain. Excess stain was washed with acetic acid and attached stain was recovered with Tris EDTA buffer. Color intensity was measured in an ELISA reader. […]
(§3) Cobalt and Platinum benzidinium hydrogen selenite complexes as well as their parent were investigated as potential selective, anticancer drugs. […] The results of the cytotoxic activity on human tumor cell lines were determined according to the dose values of drug exposure for cell lines to reduce survival to 50% (Ic50). The experimental results recorded in Table (5) and plots of surviving fraction versus concentration in μg in FIGS. 2, 3).

[2] = test system: HEPG2 (liver carcinoma); assay: Potential cytotoxicity by SRB assay, HEPG2; assay type: cell-based, human
Experimental: as §1, §2, §3

[3] = Surface tension and critical micelle concentration (Du-Nouy tensiometer); assay type: physicochemical; design: PC20: unit not given here
Experimental: Surface tension values of the synthesized complex solutions (parent complex, parent complex with Co, parent complex with Pt) were obtained at 30îC using Du-Nouy Tensiometer (Kruss K6 Type 4851) with a platinum ring. Apparent surface tension was measured about five times for the sample within 2 min interval between each reading. The averages of five determinations were plotted against −log C without any correction. The critical micelle concentration values were determined from the plot of surface tension versus concentration.
Table 4 summarizes the surface-active parameters such as critical micelle concentration (CMC), γCMC, and pC20 (the surfactant concentration required to reduce the surface tension of the solvent by 20 mN/m) determined from the curves of FIG. 1. Values of Γmax (the surface excess concentration of surfactant) and Amin (interfacial area occupied by the surfactant molecules) were calculated using the Gibbs adsorption equation:
Where (δγ/δ log C) is the maximum slope in each case; T is absolute temperature; R=[…] and N is Avogadro's number. The standard free energy of micellization (ΔG°mic) is calculated from the equation: ΔG°mic=RT in CMC (Eq 7)
The standard free energy of adsorption (ΔG°ads) is calculated according to the following equation: ΔG°ads=ΔG°mic−ΠCMCAmin (Eq 8)

[4] = SRB assay, 48 h, dose reducing survival to 50%
[5] = in vitro on the tumor cell line investigated
[6] = calculated using Gibbs adsorption equation

CCCCCCCCCC(=O)Nc1ccc(-c2ccc(N)cc2)cc1.O=[Se](O)O [parent, N-decanoylbenzidinum hydrogen selenite]
MCF7 (IC50) [1, 4]: −Ve | cytotoxic activity in words, MCF7 [1, 5]: no effect | HEPG2 (IC50) [2, 4]: −Ve | cytotoxic activity in words, HEPG2 [2, 5]: no effect | ΠCMC [3]: 33 mN/m | Amin (interfacial area occupied by surfactant molecules) [3, 6]: 1.80 nm^2 | Γmax × 10^−11 (surface excess concentration) [3, 6]: 9.1 × 10^−11 Mole/cm^2 | ΔGmic (standard free energy of micellization) ([3]; calculated, Eq 7): −27.64 KJ\mol | ΔGads (standard free energy of adsorption) ([3]; calculated, Eq 8): −64.21 KJ\mol | CMC × 10^−3 (critical micelle concentration) ([3]; from plot of surface tension versus concentration): 3.76 × 10^−3 | γCMC ([3]; surface tension at CMC): 39 mN/m | PC20 ([3]; surfactant concentration required to reduce surface tension of solvent by 20 mN/m): 3.50
